Test results reported in patent publication US20050256134A1, “Use of creatine analogues and creatine kinase modulators for the prevention and treatment of glucose metabolic disorders” (AVICENA GROUP, INC., priority 1995, published 2005).

Assays:
[1] = tested on: NZW rabbits, normal or infected with HCMV in their eyes; assay: Effect of cyclocreatine continuous intravenous infusion on glucose levels in rabbits; format: in vivo, rabbit; conditions: for average glucose levels: 10 and 5 mg/ml
Method: The creatine compound cyclocreatine, was given as a continuous intravenous infusion (IV) to normal rabbits or rabbits infected with the human cytomegalovirus (HCMV) in their eyes (Rabbit Chorioretinal model). Glucose levels were recorded over a period of seven days. This compound was tested in infected as well as in normal animals due to the fact that these compounds were also being evaluated as anti viral agents, a biological activity that were reported in the U.S. Pat. No. 5,321,030. As will become clear in the data presented here the eye infection had no effect on the levels of glucose recorded. The schedule and dose selected in these experiments was based on prior experience working with this class of compounds as antiviral agents.
A total of 11 NZW rabbits weighing 1.75-2.0 Kg were used in the experiments. All animals were infused with various doses of cyclocreatine over a period of 1-7 days in a continuous infusion mode. Continuous infusions were achieved by surgical implantation of an indwelling catheter implant into the jugular vein by standard surgical procedures. The catheter was threaded through a steel sleeve and swivel apparatus attached to the back of the animal's neck which was anchored to a specially fitted vest. A Harvard Apparatus 2200 unifusion pump maintained drug delivery at a constant rate through out the experiment. This arrangement allowed the animal unimpaired movement within its cage. Animals received a bolus injection of antibiotics immediately after surgery and daily if needed. After animals recovered from the anesthesia, some animals were inoculated by intravitreal injection of AD169 HCMV (10^5 pfu). The remaining animals were left uninfected. Both infected and uninfected animals received a continuous infusion of cyclocreatine or saline for up to seven days. Concentrations of cyclocreatine were 5, 10, or 15 mg cyclocreatine/ml saline and infusion rates and volumes were adjusted to achieve the desired dose of 375-1125 mg/Kg/day. These concentrations were based on amounts required to achieve other biological activities such as antiviral or anticancer. […] The rest of the animals received a similar volume of sterile saline. […]

[2] = tested on: female Fisher 344 rats bearing rat mammary adenocarcinoma 13762; assay: Effect of creatine compounds on glucose levels in rats bearing tumors (i.v., days 4-8 and 14-18); format: in vivo; conditions: for Glucose Levels: i.v. days 4-8 and 14-18
Method: Two creatine compounds, creatine phosphate and cyclocreatine, were injected intravenously into tumor bearing rats, and the level of glucose in the rats was monitored. Beta guanidino propionic acid, also was administered. […] There was no specific reason for using tumor bearing rats, except convenience because the antitumor activity of these compounds also was being studied. The presence of the tumors should not have any effect on the ability of these compounds to regulate glucose levels. The rats carrying the tumors were described by us previously (see, […] et al., Cancer Chemother. Pharmacol, 35: 411-416, 1995). The schedule and dose selected in these experiments was based on prior experience working with this class of compounds as anticancer or antiviral chemotherapeutic agents. The rat mammary adenocarcinoma 13762 was implanted in the female Fisher 344 rats on day zero. The creatine compounds were administered intravenously on days 4-8 and days 14-18. The amounts used were 1 gm/kg of cyclocreatine, 0.93 gm/kg for beta guanidino propionic acid, and 2.32 gm/kg for creatine phosphate. […] Plasma glucose levels were measured at around 11 a.m., by taking a drop of blood from the animals and testing glucose levels using a commercial kit ([…] bG, Boehringer Mannheim). For animals that were treated with drugs, the treatment was around 9 a.m., and bleeding was also at around 11 a.m. To examine more closely what occurred in the above two experiments, the average readings of glucose levels from experiments one and two were taken in the following time intervals post drug treatment: Days 2-3, Days 4-8, Days 8-12, Days 14-18, Day 15 and Days 19-22.

[3] = uninfected, 15 mg/ml (1125 mg/Kg/day), day five

NC1=NCCN1CC(=O)O [cyclocreatine]
Glucose Levels ([1]; 5 mg/ml, HCMV infected, animal 1, day 0): 177 mg/dL | Glucose Levels ([1]; 5 mg/ml, HCMV infected, animal 1, day 1): 104 mg/dL | Glucose Levels ([1]; 5 mg/ml, HCMV infected, animal 1, day 3): 70 mg/dL | Glucose Levels ([1]; 5 mg/ml, HCMV infected, animal 1, day 5): 29 mg/dL | Glucose Levels ([1]; 5 mg/ml, HCMV infected, animal 2, day 0): 177 mg/dL | Glucose Levels ([1]; 5 mg/ml, HCMV infected, animal 2, day 1): 94 mg/dL | Glucose Levels ([1]; 5 mg/ml, HCMV infected, animal 2, day 3): 49 mg/dL | Glucose Levels ([1]; 5 mg/ml, HCMV infected, animal 2, day 5): 41 mg/dL | Glucose Levels ([1]; 5 mg/ml, HCMV infected, animal 3, day 0): 177 mg/dL | Glucose Levels ([1]; 5 mg/ml, HCMV infected, animal 3, day 1): 93 mg/dL | Glucose Levels ([1]; 5 mg/ml, HCMV infected, animal 3, day 3): 47 mg/dL | Glucose Levels ([1]; 5 mg/ml, HCMV infected, animal 3, day 5): 33 mg/dL | Glucose Levels ([1]; 10 mg/ml, HCMV infected, animal 1, day 0): 169 mg/dL | Glucose Levels ([1]; 10 mg/ml, HCMV infected, animal 1, day 1): 118 mg/dL | Glucose Levels ([1]; 10 mg/ml, HCMV infected, animal 1, day 3): 103 mg/dL | Glucose Levels ([1]; 10 mg/ml, HCMV infected, animal 1, day 4): 59 mg/dL | Glucose Levels ([1]; 10 mg/ml, HCMV infected, animal 1, day 5): 45 mg/dL | Glucose Levels ([1]; 10 mg/ml, HCMV infected, animal 2, day 0): 194 mg/dL | Glucose Levels ([1]; 10 mg/ml, HCMV infected, animal 2, day 1): 89 mg/dL | Glucose Levels ([1]; 10 mg/ml, HCMV infected, animal 2, day 3): 98 mg/dL | Glucose Levels ([1]; 10 mg/ml, HCMV infected, animal 2, day 4): 69 mg/dL | Glucose Levels ([1]; 10 mg/ml, HCMV infected, animal 2, day 5): 62 mg/dL | Glucose Levels ([1]; 10 mg/ml, HCMV infected, animal 3, day 0): 201 mg/dL | Glucose Levels ([1]; 10 mg/ml, HCMV infected, animal 3, day 1): 76 mg/dL | Glucose Levels ([1]; 10 mg/ml, HCMV infected, animal 3, day 3): 74 mg/dL | Glucose Levels ([1]; 10 mg/ml, HCMV infected, animal 3, day 4): 87 mg/dL | Glucose Levels ([1]; 10 mg/ml, HCMV infected, animal 3, day 5): 55 mg/dL | Glucose Levels ([1]; 10 mg/ml, HCMV infected, animal 4, day 0): 184 mg/dL | Glucose Levels ([1]; 10 mg/ml, HCMV infected, animal 4, day 1): 81 mg/dL | Glucose Levels ([1]; 10 mg/ml, HCMV infected, animal 4, day 3): 85 mg/dL | Glucose Levels ([1]; 10 mg/ml, HCMV infected, animal 4, day 4): 65 mg/dL | Glucose Levels ([1]; 10 mg/ml, HCMV infected, animal 4, day 5): 53 mg/dL | Glucose Levels ([1]; 15 mg/ml, not infected, animal 1, day 0): 177 mg/dL | Glucose Levels ([1]; 15 mg/ml, not infected, animal 1, day 3): 48 mg/dL | Glucose Levels ([1]; 15 mg/ml, not infected, animal 2, day 0): 177 mg/dL | Glucose Levels ([1]; 15 mg/ml, not infected, animal 2, day 3): 59 mg/dL | Glucose Levels ([1]; 15 mg/ml, not infected, animal 2, day 5): 7 mg/dL | Glucose Levels ([1]; 15 mg/ml, not infected, animal 3, day 0): 177 mg/dL | Glucose Levels ([1]; 15 mg/ml, not infected, animal 3, day 5): 22 mg/dL | Glucose Levels ([1]; 15 mg/ml, not infected, animal 3, day 6): 22 mg/dL | Glucose Levels ([1]; 15 mg/ml, not infected, animal 3, day 7, (10 ml/rabbit 20% Dextrose)): 73 mg/dL | Glucose Levels ([1]; ave 5 mg/ml, HCMV infected, day 0): 177 mg/dL | Glucose Levels ([1]; ave 5 mg/ml, HCMV infected, day 1): 97 mg/dL | Glucose Levels ([1]; ave 5 mg/ml, HCMV infected, day 3): 55 mg/dL | Glucose Levels ([1]; ave 5 mg/ml, HCMV infected, day 5): 34 mg/dL | Glucose Levels ([1]; ave 10 mg/ml, HCMV infected, day 0): 187 mg/dL | Glucose Levels ([1]; ave 10 mg/ml, HCMV infected, day 1): 91 mg/dL | Glucose Levels ([1]; ave 10 mg/ml, HCMV infected, day 3): 90 mg/dL | Glucose Levels ([1]; ave 10 mg/ml, HCMV infected, day 4): 70 mg/dL | Glucose Levels ([1]; ave 10 mg/ml, HCMV infected, day 5): 54 mg/dL | Glucose Levels ([1]; ave 15 mg/ml, not infected, day 0): 177 mg/dL | Glucose Levels ([1]; ave 15 mg/ml, not infected, day 3): 54 mg/dL | Glucose Levels ([1]; ave 15 mg/ml, not infected, day 5): 15 mg/dL | Glucose Levels ([1]; ave 15 mg/ml, not infected, day 6): 22 mg/dL | Glucose Levels ([1]; ave 15 mg/ml, not infected, day 7, (10 ml/rabbit 20% Dextrose)): 73 mg/dL | blood glucose levels ([1]; infected, 10 mg/ml (750 mg/Kg/day) and 5 mg/ml (375 mg/Kg/day)): significant drop in blood glucose levels | average glucose levels ([1]; infected, day five): 30 to 50 mg/dL | average glucose levels ([1]; infected, day one): ~90 mg/dL | Glucose Levels ([1]; uninfected, 15 mg/ml (1125 mg/Kg/day)): significant drop in their glucose levels | Glucose Levels [1, 3]: 7 to 22 mg/dL | condition of the animals [1, 3]: very lethargic | Glucose Levels ([1]; uninfected, 15 mg/ml (1125 mg/Kg/day), day three): 48 to 59 mg/dL | level of glucose after 10 mls of a 20% solution of dextrose ([1]; uninfected, 15 mg/ml, day 7): 70 mg/dL | Glucose Levels ([2]; Example 1): two drops in glucose levels at the time of drug administration | Glucose Levels ([2]; Example 2 (repeat)): induced a drop in the level of glucose after each administration | drop in glucose level ([2]; average of experiments one and two, day 15): ≤ 50%
